Measurements as given in patent publication US6713276B2, “Modulation of Aβ levels by β-secretase BACE2” (Scios, Inc., priority 2000, dated 2004).

Tests used:
[1] = system: APP751sw processing in HEK293T cells; test: co-transfection with APP751sw in HEK293T cells, ELISA of conditioned medium; format: cell-based, human; details: co-transfected with APP751sw
Protocol: (§1) Expression vectors containing BACE and BACE2 cDNAs were transfected into HEK293T cells in the presence of APP751sw or CT100 (Shoji et al., Science 258: 126-129 [1992]; Lichtenthaler et al., Proc. Natl. Acad. Sci. USA 96: 3053-3058 [1999]). Transfections were performed in 24 well plates using Lipofectamine Plus (Gibco/BRL, Bethesda, Md.) and DNA concentrations were kept constant by including non-specific DNA. Expression plasmids were tested for BACE and BACE2 expression by Western blotting. Cell culture supernatants were collected 48 hours and 72 hours post-transfection, and assayed for α-NTF, β-NTF and Aβ formation. β-NTF measurement was performed as described below. α-NTF was captured like β-NTF but was detected with biotinylated 2H3 (Johnson-Wood et al., Proc. Nati. Acad. Sci. USA 94: 1550-1555 [1997]). Aβ levels were determined by an ELISA using monoclonal antibodies 266 for capture and biotinylated 3D6 for detection (see Johnson-Wood et al., [1997] ibid for antibody epitope description). Aβ42, in contrast, was captured using 21F 12 and detected with biotinylated 3D6. Cell extracts prepared 72 hour post-transfection were separated by SDS-PAGE (Novex) and probed with CT695 (Zymed) for APP and CTFs as well as with an Aβ specific monoclonal antibody WO2 (kindly provided by K. Beyreuther; Ida et al., J. Biol. Chem. 271: 22908-22914 [1996]). […]
Given the ability of BACE2 to cleave APP at the β-secretase site in vitro, we investigated the role of BACE2 in HEK293T cells relative to BACE. […] Cell supernatants were collected 48 hours or 72 hours post-transfection and analyzed for α-NTF, β-NTF, total Aβ and Aβ42 as described in Genenral Methodology. […]
In an independent experiment, we addressed whether BACE2 competed with the ability of BACE to cleave APP at the β-secretase site. HEK293T cells were co-transfected with constant amounts of APP751sw and BACE, and increasing levels of BACE2. β-NTF and Aβ levels were then measured in culture supernatant (FIG. 3). […]

[2] = system: APP751sw processing in SK-N-MC cells; test: co-transfection with APP751sw in SK-N-MC neuroblastoma cells, ELISA of conditioned medium; format: cell-based, human; details: co-transfected with APP751sw
Protocol: as §1, with “3D6.” for “3D6. Cell extracts prepared 72 hour post-transfection were separated by SDS-PAGE (Novex) and probed with CT695 (Zymed) for APP and CTFs as well as with an Aβ specific monoclonal antibody WO2 (kindly provided by K. Beyreuther; Ida et al., J. Biol. Chem. 271: 22908-22914 [1996]).”
We further assessed the modulatory effect of BACE2 on Aβ formation using a human neuroblastoma cell line, SK-N-MC.

[3] = system: CT100 (C-terminal 100 amino acids of APP) processing in HEK293T cells; test: co-transfection with CT100 in HEK293T cells, ELISA, Western blot, pulse-chase; format: cell-based, human; details: HEK293T, co-transfected with CT100
Protocol: as §1, with “3D6.” for “3D6. Cell extracts prepared 72 hour post-transfection were separated by SDS-PAGE (Novex) and probed with CT695 (Zymed) for APP and CTFs as well as with an Aβ specific monoclonal antibody WO2 (kindly provided by K. Beyreuther; Ida et al., J. Biol. Chem. 271: 22908-22914 [1996]).”
This effect prompted investigation into whether β-secretase cleavage was required for Aβ suppression. The effects of BACE2 on the metabolism of the C-terminal 100 amino acids of APP (CT100), a construct that mimics prior β-secretase cleavage (Shoji et al., Science 258: 126-129 [1992]), was analyzed. […]

[4] = system: APP751sw processing in HEK293T cells; test: pulse-chase / pulse-labeling and immunoprecipitation of APP CTFs, Aβ and p3 in HEK293T cells; format: cell-based, human; details: HEK293T, APP751sw, 15 min pulse, chase up to 90 minutes
Protocol: Forty eight hours post-transfection, HEK293T cells were labeled for 15 minutes with 200 μCi Promix L [^35S] in vitro cell labeling mix (Amersham) and chased for up to 90 minutes according to standard procedures. APP CTFs were immunoprecipitated with antibodies 369 (Cai et al., Science 259: 514-516 [1993]). For immunoprecipitations of Aβ and p3 from conditioned medium, HEK293T cells were labeled for 5 hours with 300 μCi Promix L [^35S] in vitro cell labeling mix (Amersham) 48 hours post-transfection. Aβ40 and Aβ42 as well as the corresponding p3 species were immunoprecipitated with monoclonal antibodies 1702.1 and 108.1, respectively (Higaki et al., J. Med. Chem. 42: 3889-3898 [1999]).
To analyze the metabolism of APP as a consequence of BACE or BACE2 overexpression we performed a parallel pulse-chase experiment (FIG. 2e). HEK293T cells transfected as above were pulse-labeled and chased for up to 90 minutes and APP and CTFs were immunoprecipitated. […] An alternative β-secretase related cleavage product (β′-CTF) was also formed consistent with previous reports (Vassar et al., Science [1999] ibid; Higaki et al., Neuron 14: 651-659 [1995]). Consistent with its β-secretase activity, BACE2 overexpression led to a significant initial increase in β-CTF levels compared to mock-transfected cells. […] To determine whether BACE affected γ-secretase activity, we determined whether p3 could be formed. […]

APP751sw = test: cell-free β-secretase assay, β-NTF ELISA, APP751sw substrate; format: biochemical, human; details: membrane extracts of transfected HEK293 cells, pH 4.5, 37° C.
Protocol: The β-secretase assay consists of two different parts, an incubation or reaction phase to generate β-NTF and an ELISA part to capture and measure the β-NTF generated by β-secretase. The β-secretase ELISA was performed as follows. Each well of a 96 well plate containing a flat bottom (high protein binding, Corning, N.Y.) was coated with 100 μl of the monoclonal capture antibody 8E5 (at ˜8-10 μg/ml) (Johnson-Wood et al. Proc. Natl. Acad. Sci. USA 94: 1550-1555 [1997]). The plate was then covered with parafilm and incubated overnight at 4° C. or alternatively for 2 hours at 37° C. […]
One hundred μl of a 1:5000 dilution of a goat anti rabbit IgG-HRP in Antibody-Conjugate Buffer was then added to each well, and the plate incubated at room temperature for one hour. […] After sufficient blue color had developed, the reactions were stopped by adding 100 μl of 5N H2SO4 to each well, and the amount of βNTF was determined by reading the plate at 450 nm in a Softmax spectrophotometer.
Equal amounts of membrane extracts from either mock, BACE or BACE2 transfected HEK293 cells were incubated with partially purified full length APP751 sw or APP751wt for the indicated times. The formation of β-NTF was then determined using the respective β-NTF specific ELISA as described in General Methodology.

BACE: β-site APP-cleaving enzyme, membrane-bound aspartyl protease, cloned from human brain cDNAs and overexpressed
total Aβ in conditioned medium [1]: Aβ production was not significantly stimulated
α-NTF levels in conditioned medium [1]: α-NTF levels were proportionally reduced
total OD of α-NTF plus β-NTF ([1]; APP751sw alone ~2.59): ~2.3 OD
Aβ in conditioned medium [2]: very pronounced increase in both β-NTF and Aβ
β-NTF in conditioned medium [2]: very pronounced increase in both β-NTF and Aβ
total Aβ and Aβ42 levels in conditioned medium [3]: did not affect the levels of Aβ
APP CTF turnover (β-CTF, β′-CTF, α-CTF) [4]: accumulation of β-CTF
β-NTF formation (β-secretase cleavage in vitro) (APP751sw): time-dependent increase in β-NTF formation
